Results as given in article PMC5641481 (Science (New York, N.Y.), 2017).
One block for each compound: values may come before it.

Assays:
ABHD6 [1] = target: T1, ABHD6 (Homo sapiens, UniProt Q9BV23); experiment: competitive gel-based ABPP, intact HEK293T cells; format: cell-based; conditions: ABHD6, in situ (4 h)
T1 sequence (Q9BV23 1-337): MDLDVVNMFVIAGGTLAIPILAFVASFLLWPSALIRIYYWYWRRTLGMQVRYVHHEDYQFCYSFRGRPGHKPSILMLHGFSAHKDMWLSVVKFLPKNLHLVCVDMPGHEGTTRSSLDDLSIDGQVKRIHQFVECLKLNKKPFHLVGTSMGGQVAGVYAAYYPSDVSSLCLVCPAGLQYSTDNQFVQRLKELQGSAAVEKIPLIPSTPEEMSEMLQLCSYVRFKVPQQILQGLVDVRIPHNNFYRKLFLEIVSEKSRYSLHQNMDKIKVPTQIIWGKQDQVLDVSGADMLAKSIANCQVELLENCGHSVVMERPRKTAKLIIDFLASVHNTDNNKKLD

ABHD6 [2] = target: T1, ABHD6; experiment: MS-based ABPP in SW620 cells; format: cell-based
rat FAAH = target: T2, rat FAAH (Rattus norvegicus, UniProt P97612); experiment: substrate hydrolysis assay; format: biochemical; conditions: in vitro
T2 sequence (P97612 1-579): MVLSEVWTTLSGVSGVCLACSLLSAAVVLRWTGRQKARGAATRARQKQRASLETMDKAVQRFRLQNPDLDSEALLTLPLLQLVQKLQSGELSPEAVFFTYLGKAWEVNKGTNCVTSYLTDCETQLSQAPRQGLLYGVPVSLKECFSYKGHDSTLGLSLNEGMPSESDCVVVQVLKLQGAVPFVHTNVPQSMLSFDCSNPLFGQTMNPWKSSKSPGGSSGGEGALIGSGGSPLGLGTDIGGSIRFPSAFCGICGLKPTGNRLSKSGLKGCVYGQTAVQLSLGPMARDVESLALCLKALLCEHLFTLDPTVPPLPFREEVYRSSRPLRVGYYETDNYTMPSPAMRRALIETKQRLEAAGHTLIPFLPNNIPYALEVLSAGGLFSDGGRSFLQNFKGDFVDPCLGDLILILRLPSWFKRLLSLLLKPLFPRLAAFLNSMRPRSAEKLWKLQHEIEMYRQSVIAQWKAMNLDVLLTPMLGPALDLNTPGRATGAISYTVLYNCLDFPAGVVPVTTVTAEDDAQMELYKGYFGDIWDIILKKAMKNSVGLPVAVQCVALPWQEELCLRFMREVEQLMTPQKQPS

[3] = test system: other proteins of the endocannabinoid system, endocannabinoid-binding TRP ion channels; experiment: interaction with other endocannabinoid system proteins and TRP channels
FAAH [4] = target: T3, FAAH (Homo sapiens, UniProt O00519); experiment: anandamide substrate hydrolysis assay, intact transfected HEK293T cells; format: cell-based; conditions: human FAAH in transfected HEK293T cells, in situ
T3 sequence (O00519 1-579): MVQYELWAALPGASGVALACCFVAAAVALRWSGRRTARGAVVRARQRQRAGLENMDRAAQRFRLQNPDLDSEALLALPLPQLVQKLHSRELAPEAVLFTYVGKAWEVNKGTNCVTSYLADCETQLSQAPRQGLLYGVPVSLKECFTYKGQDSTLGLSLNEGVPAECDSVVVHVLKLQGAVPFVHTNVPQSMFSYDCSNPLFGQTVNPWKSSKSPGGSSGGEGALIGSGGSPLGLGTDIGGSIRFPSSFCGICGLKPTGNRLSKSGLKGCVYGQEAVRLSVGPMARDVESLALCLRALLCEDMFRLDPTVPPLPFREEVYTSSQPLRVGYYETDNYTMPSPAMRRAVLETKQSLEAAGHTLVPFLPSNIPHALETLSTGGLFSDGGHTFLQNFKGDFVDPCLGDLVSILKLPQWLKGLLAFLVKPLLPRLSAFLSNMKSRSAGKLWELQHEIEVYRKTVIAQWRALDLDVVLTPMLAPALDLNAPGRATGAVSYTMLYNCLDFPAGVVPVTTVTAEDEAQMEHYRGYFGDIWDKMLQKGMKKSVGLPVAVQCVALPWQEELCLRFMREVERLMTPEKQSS

ABHD6 [5] = target: T1, ABHD6; experiment: ABPP of human frontal cortex proteome; format: biochemical; conditions: human frontal cortex proteome (post-mortem)
FAAH2 = target: T4, FAAH2 (Homo sapiens, UniProt Q6GMR7); experiment: competitive gel-based ABPP, intact HEK293T cells; format: cell-based; conditions: FAAH2, in situ (4 h)
T4 sequence (Q6GMR7 1-532): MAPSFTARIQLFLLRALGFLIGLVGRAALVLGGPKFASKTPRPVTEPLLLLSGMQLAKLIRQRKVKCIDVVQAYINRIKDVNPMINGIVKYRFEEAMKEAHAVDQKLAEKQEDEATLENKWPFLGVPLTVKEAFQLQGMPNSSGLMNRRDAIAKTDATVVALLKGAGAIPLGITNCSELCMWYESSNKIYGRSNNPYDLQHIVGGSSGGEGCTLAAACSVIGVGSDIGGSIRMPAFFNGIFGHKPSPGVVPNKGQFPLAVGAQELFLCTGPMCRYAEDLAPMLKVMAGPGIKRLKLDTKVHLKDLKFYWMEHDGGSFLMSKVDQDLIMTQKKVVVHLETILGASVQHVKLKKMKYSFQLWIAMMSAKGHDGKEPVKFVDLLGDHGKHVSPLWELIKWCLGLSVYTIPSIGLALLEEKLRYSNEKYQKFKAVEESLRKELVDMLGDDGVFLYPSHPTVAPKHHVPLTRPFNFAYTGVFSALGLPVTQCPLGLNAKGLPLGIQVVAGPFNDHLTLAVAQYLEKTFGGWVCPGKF

FAAH [6] = target: T3, FAAH; experiment: MS-based ABPP in SW620 cells; format: cell-based; conditions: all tested concentrations (0.2, 10, and 50 μM)
ABHD11 = target: T5, ABHD11 (Homo sapiens, UniProt Q8NFV4); experiment: competitive gel-based ABPP, intact HEK293T cells; format: cell-based; conditions: ABHD11, in situ (4 h)
T5 sequence (Q8NFV4 1-306): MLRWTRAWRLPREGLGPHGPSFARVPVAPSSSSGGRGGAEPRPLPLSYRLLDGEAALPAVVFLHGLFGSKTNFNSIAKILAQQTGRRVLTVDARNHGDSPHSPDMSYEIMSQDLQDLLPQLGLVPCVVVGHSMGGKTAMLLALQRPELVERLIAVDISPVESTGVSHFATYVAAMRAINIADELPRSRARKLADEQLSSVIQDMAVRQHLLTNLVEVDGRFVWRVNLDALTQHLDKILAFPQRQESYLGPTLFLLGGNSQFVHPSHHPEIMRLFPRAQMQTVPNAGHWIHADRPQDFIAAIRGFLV

PNPLA6 = PNPLA6 (Homo sapiens, UniProt Q8IY17); conditions: PNPLA6, in situ (24 h), gel-based ABPP, HEK293T
FAAH [7] = target: T3, FAAH; experiment: competitive gel-based ABPP, intact HEK293T cells; format: cell-based; conditions: in situ (4 h)
FAAH [8] = target: T3, FAAH; experiment: anandamide substrate hydrolysis assay, HEK293T cell lysates; format: biochemical; conditions: in vitro
FAAH [9] = target: T3, FAAH; experiment: ABPP of human frontal cortex proteome; format: biochemical; conditions: human frontal cortex proteome (post-mortem)
FAAH [10] = target: T3, FAAH; experiment: competitive gel-based ABPP, HEK293T cell lysates; format: biochemical; conditions: in vitro, HEK293T recombinantly expressing human enzyme
CES2 = target: T6, CES2 (Homo sapiens, UniProt O00748); experiment: competitive gel-based ABPP, intact HEK293T cells; format: cell-based; conditions: CES2, in situ (4 h)
T6 sequence (O00748 27-559): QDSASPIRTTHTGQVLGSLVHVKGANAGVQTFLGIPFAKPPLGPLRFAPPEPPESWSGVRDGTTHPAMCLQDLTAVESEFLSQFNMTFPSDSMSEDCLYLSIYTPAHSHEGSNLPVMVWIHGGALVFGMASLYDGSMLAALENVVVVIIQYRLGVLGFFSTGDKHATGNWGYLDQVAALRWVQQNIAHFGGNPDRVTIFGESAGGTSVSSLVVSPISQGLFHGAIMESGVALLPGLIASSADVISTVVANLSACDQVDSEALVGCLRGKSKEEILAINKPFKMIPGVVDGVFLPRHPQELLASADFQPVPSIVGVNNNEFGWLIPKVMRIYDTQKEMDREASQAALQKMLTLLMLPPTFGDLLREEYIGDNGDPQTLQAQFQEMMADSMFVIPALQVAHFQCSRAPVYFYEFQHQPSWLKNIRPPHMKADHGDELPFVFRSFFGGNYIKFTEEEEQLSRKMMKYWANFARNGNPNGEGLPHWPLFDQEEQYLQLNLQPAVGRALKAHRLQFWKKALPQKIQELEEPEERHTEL

Sequence of PNPLA6 (Q8IY17 whole entry): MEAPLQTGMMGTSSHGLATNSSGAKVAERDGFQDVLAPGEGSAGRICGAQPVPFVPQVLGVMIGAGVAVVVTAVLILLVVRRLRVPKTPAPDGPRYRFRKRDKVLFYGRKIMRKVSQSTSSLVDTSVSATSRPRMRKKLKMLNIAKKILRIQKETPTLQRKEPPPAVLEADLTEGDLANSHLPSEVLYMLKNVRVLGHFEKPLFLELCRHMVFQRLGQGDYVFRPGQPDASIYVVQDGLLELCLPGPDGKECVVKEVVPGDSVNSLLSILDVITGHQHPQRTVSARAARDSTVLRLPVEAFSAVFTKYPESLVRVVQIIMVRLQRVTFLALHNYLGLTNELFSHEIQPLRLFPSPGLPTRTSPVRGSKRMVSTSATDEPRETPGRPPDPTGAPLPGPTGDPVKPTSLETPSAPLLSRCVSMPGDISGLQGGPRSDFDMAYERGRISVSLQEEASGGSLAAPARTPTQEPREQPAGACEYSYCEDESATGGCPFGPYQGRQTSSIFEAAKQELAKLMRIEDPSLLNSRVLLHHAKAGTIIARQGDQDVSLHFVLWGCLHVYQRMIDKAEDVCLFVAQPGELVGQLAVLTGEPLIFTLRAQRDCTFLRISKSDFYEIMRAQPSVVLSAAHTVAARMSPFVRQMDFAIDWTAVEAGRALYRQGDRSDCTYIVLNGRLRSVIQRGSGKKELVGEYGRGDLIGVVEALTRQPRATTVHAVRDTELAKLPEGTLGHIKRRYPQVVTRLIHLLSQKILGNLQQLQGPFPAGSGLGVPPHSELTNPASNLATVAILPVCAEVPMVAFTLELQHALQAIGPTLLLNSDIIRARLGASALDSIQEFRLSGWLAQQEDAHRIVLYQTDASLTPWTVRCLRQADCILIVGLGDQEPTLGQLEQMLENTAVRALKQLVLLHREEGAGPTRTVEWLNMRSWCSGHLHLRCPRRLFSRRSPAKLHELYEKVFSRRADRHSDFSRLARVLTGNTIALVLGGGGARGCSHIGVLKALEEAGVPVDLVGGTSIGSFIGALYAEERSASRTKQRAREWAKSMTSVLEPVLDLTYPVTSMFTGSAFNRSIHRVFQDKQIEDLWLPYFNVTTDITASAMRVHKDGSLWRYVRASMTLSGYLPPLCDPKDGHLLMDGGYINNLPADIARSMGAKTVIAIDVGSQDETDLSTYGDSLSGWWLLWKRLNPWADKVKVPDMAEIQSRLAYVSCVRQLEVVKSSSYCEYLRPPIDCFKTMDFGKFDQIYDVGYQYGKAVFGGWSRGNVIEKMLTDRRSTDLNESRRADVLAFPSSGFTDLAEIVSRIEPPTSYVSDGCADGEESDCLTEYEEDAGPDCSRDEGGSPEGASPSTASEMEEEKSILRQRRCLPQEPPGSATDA

SMILES: CN(C(=O)n1cnc(-c2ccc[n+]([O-])c2)c1)C1CCCCC1 [BIA 10-2474]
IC50 (ABHD6 [1]): 81 nM
inhibition of ABHD6 (ABHD6 [2]; 10 μM, 4 h): > 90%
inhibition of ABHD6 (ABHD6 [2]; 50 μM, 24 h): > 90%
IC50 (rat FAAH): ≥ 1000 nM
interaction with other proteins of the endocannabinoid system or endocannabinoid-binding TRP ion channels [3]: did not interact
IC50 (FAAH [4]): 50 to 70 nM
cross-reactivity with ABHD6 (ABHD6 [5]): cross-reactivity
IC50 (FAAH2): 400 nM
engagement of human FAAH (FAAH [6]): fully engaged
IC50 (ABHD11): > 10000 nM
IC50 (PNPLA6): 11000 nM
IC50 (FAAH [7]): 49 nM
IC50 (FAAH [8]; human FAAH): ≥ 1000 nM
cross-reactivity with FAAH (FAAH [9]): cross-reactivity
IC50 (FAAH [10]): 7500 nM

IC50 (ABHD6 [1]): 79 nM
IC50 (FAAH2): 100 nM
IC50 (CES2): 630 nM
IC50 (FAAH [7]): 49 nM
IC50 (FAAH [10]): 4100 nM
SMILES: CN(C(=O)n1cnc(-c2cccnc2)c1)C1CCCCC1 [BIA 10-2639]

SMILES: O=C(Nc1cccnn1)N1CCC(=Cc2cccc(Oc3ccc(C(F)(F)F)cn3)c2)CC1 [PF04457845]
IC50 (ABHD6 [1]): > 10000 nM
interaction with other proteins of the endocannabinoid system or endocannabinoid-binding TRP ion channels [3]: did not interact
IC50 (FAAH2): 590 nM
engagement of human FAAH (FAAH [6]): fully engaged
IC50 (ABHD11): > 10000 nM
IC50 (PNPLA6): > 50000 nM
IC50 (CES2): > 10000 nM
IC50 (FAAH [7]): 11 nM
IC50 (FAAH [8]; FAAH): 1 to 10 nM
IC50 (FAAH [10]): 4 nM
